Reference: US20220363662A1, “COMPOUNDS AS LXR AGONISTS” (Integral Biosciences Privated Limited, priority 2021, published 2022)

Tests used:
HepG2 = experiment: Cell viability assay (resazurin) in HepG2; assay type: cell-based; details: Homo sapiens, 96 hr exposure
Description: (§1) HepG2 (ATCC® HB-8065™), hepatocellular carcinoma, A549 (ATCC® CCL-185™), lung epithelial carcinoma, MCF7 (ATCC® HTB-22™), mammary gland epithelial carcinoma, MDA-MB-231 (ATCC® HTB-26™), TNBC, MiaPaCa-2 (ATCC® CRL-1420™) & Panc-1 (ATCC® CRL-1469™), pancreatic epithelial carcinoma, HCT116 (ATCC® CCL-247™), colon epithelial carcinoma and U87MG (ATCC® HTB-14™), brain epithelial carcinoma cell lines respectively were seeded in the respective medium (DMEM, Cat #10569044 with 10% FBS, Cat #16000044; Gibco for HepG2, A549, MCF7, MDA-MB-231, MiaPaCa-2, Panc-1, HCT116 and MEM, Cat #11095080 with 10% FBS for U87MG). Cells were allowed to grow at 37° C. for 24 hr in 5% CO2 (culture conditions) in a Nuaire incubator (humidified). Serially diluted compounds (100 μl) were added to the culture plate 24 hr later and the cultures were further incubated in culture conditions for 96 hr. Experiment was terminated at the completion of 96 hr exposure to the drug by replacing the medium with 100 μl of 1 mM of resazurin (R7017; Sigma) prepared in culture medium and the plates were further incubated in culture conditions for 4 hr. Fluorescence was then measured using a multimodal plate reader (Biotek Synergy Neo) at an excitation wavelength of 535 nm and emission wavelength of 590 nm to obtain relative fluorescence units. Data analysis was done by subtracting the background fluorescence (only medium blank) value from each reading and then normalizing with the vehicle control (DMSO treated cells) to obtain percent survival/proliferation. Percent survival at different doses was used to calculate IC50 by fitting the curve to the “four-parameter variable slope logistic model” using Prism Graph Pad.

LXR beta = molecular target: T1, LXR beta (Homo sapiens, UniProt P55055); experiment: LXR beta agonist assay (Lanthascreen TR-FRET); assay type: biochemical; details: LXR beta-LBD 5 nM, read-out: LXR-β EC50
T1 construct: 5 μL of 4×LXR beta-LBD was added to each well (final concentration 5 nM); purchased Thermofisher PV4658
T1 sequence (P55055 222-460 limits assumed): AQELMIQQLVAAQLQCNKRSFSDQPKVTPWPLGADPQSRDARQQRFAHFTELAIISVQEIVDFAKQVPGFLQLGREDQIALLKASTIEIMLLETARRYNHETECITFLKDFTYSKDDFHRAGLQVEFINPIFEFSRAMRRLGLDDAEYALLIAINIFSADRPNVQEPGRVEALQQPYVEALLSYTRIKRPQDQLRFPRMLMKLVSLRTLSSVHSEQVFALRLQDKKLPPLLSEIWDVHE
Description: EC50 values of compounds against LXR beta were determined at Integral BioSciences (India) using Lanthascreen TR-FRET (Thermofisher, Cat #PV4658). Assay was performed in a 20 μL final volume in a Black 384-well plate (Corning, Cat #4511). Dose response curve for the compounds were prepared in duplicates with starting concentration at 30 μM and a three-fold titration was performed. The reaction buffer consisted of TR-FRET Coregulator Buffer G. To the compound dilution, 5 μL of 4×LXR beta-LBD was added to each well (final concentration 5 nM). An equal volume (5 μL) containing 4×Fl-D22/Tb-anti GST antibody (final concentration 100 nM/10 nM) was added to initiate the enzyme reaction and the reaction was incubated for 60 min at 22° C. after which the plates were read using BioTek Plate reader for TR-FRET every hour up to 4 hours.
Analysis was done using the standard curve by non-linear regression, variable slope inhibitor curve fits (Graph-Pad Prism) and EC50's of compounds were determined wherever possible.

A549 = experiment: Cell viability assay (resazurin) in A549; assay type: cell-based; details: Homo sapiens, 96 hr exposure
Description: as §1

THP1 = experiment: Cell viability assay in THP1; assay type: cell-based; details: Homo sapiens, THP-1
HCT116 = experiment: Cell viability assay (resazurin) in HCT116; assay type: cell-based; details: Homo sapiens, HCT-116; 96 hr exposure
Description: as §1

MDA-MB-231 = experiment: Cell viability assay (resazurin) in MDA-MB-231; assay type: cell-based; details: Homo sapiens, 96 hr exposure, read-out: MDA_MB-231 Cell IC50
Description: as §1

SMILES | IC50 (HepG2) | EC50 (LXR beta) | IC50 (A549) | IC50 (THP1) | IC50 (HCT116) | IC50 (MDA-MB-231)
CC(C)[C@@](O)(C(=O)N1CCC2(CC1)CN(C1CCN(c3ccc(C(=O)N(C)C)c(Cl)c3)CC1)C2)C(F)(F)F (single isomer, unassigned) [Compound 1.73] | > 30 µM | 1.41 µM | – | – | – | –
CN(C)C(=O)c1ccc(-c2cncc(C3=CCN(S(=O)(=O)c4ccccc4Cl)CC3)c2)cc1Cl [Compound 1.39, 2-chloro-4-(5-(1-(2-chlorophenylsulfonyl)-1,2,3,6-tetrahydropyridin-4-yl)pyridin-3-yl)-N,N-dimethylbenzamide] | – | – | > 30 µM | > 30 µM | > 30 µM | > 30 µM
CC(C)C(O)(C(=O)N1CCC(N2CC[C@H](Nc3ccc(C(=O)N(C)C)c(Cl)c3)C2)CC1)C(F)(F)F (stereo partly drawn) [Compound 1.40, 2-chloro-4-((3S)-1-(1-(2-hydroxy-3-methyl-2-(trifluoromethyl)butanoyl)piperidin-4-yl)pyrrolidin-3-ylamino)-N,N-dimethylbenzamide] | – | 23.6 µM | > 30 µM | > 30 µM | > 30 µM | > 30 µM
CN(C)C(=O)c1ccc(NC2CN(C3CCN(C(=O)C(C)(C)c4ccccc4)CC3)C2)cc1Cl [Compound 1.41, 2-chloro-N,N-dimethyl-4-(1-(1-(2-methyl-2-phenylpropanoyl)piperidin-4-yl)azetidin-3-ylamino)benzamide] | – | 5.75 µM | > 30 µM | > 30 µM | > 30 µM | > 30 µM
CN(C)C(=O)c1ccc(NC2CN(C3CCN(C(=O)C4(c5cccc(F)c5)CCC4)CC3)C2)cc1Cl [Compound 1.42, 2-chloro-4-(1-(1-(1-(3-fluorophenyl)cyclobutanecarbonyl)piperidin-4-yl)azetidin-3-ylamino)-N,N-dimethylbenzamide] | – | 3.09 µM | > 30 µM | > 30 µM | 15.1 µM | 16.1 µM
CC(C)C(O)(C(=O)N1CCC(N2CC(Nc3ccc(C(=O)N(C)C)c(Cl)c3)C2)CC1)C(F)(F)F (centres unmarked) [Compound 1.43, 2-chloro-4-(1-(1-(2-hydroxy-3-methyl-2-(trifluoromethyl)butanoyl)piperidin-4-yl)azetidin-3-ylamino)-N,N-dimethylbenzamide] | – | 4.68 µM | > 30 µM | > 30 µM | > 30 µM | > 30 µM
CN(C)C(=O)c1ccc(NC2CN(C3CCN(C(=O)C4(c5ccccc5)CCC4)CC3)C2)cc1Cl [Compound 1.48, 2-chloro-N,N-dimethyl-4-(1-(1-(1-phenylcyclobutanecarbonyl)piperidin-4-yl)azetidin-3-ylamino)benzamide] | – | – | 19.8 µM | > 30 µM | 12.2 µM | > 30 µM
CN(C)C(=O)c1ccc(N[C@@H]2CCCN(C3CCN(C(=O)[C@](O)(c4ccccc4)C(F)(F)F)CC3)C2)cc1Cl [Compound 1.71, 2-chloro-N,N-dimethyl-4-((R)-1′-((R)-3,3,3-trifluoro-2-hydroxy-2-phenylpropanoyl)-1,4′-bipiperidin-3-ylamino)benzamide] | > 29.4 µM | 1.18 µM | – | – | – | –
CN(C)C(=O)c1ccc(O[C@@H]2CCN(C3CCN(C(=O)[C@](O)(c4ccccc4)C(F)(F)F)CC3)C2)cc1Cl [Compound 1.72, 2-chloro-N,N-dimethyl-4-((R)-1-(1-((R)-3,3,3-trifluoro-2-hydroxy-2-phenylpropanoyl)piperidin-4-yl)pyrrolidin-3-yloxy)benzamide] | > 30 µM | 5.37 µM | – | – | – | –
CN(C)C(=O)c1ccc(N2CC3(CCN(C4CCN(C(=O)[C@](O)(c5ccccc5)C(F)(F)F)CC4)CC3)C2)cc1Cl [Compound 1.75, 2-chloro-N,N-dimethyl-4-(7-(1-((R)-3,3,3-trifluoro-2-hydroxy-2-phenylpropanoyl)piperidin-4-yl)-2,7-diazaspiro[3.5]nonan-2-yl)benzamide] | > 30 µM | > 30 µM | – | – | – | –
CN(C)C(=O)c1ccc(O[C@H]2CCN(C3CCN(C(=O)[C@](O)(c4ccccc4)C(F)(F)F)CC3)C2)cc1Cl [Compound 1.76, 2-chloro-N,N-dimethyl-4-((S)-1-(1-((R)-3,3,3-trifluoro-2-hydroxy-2-phenylpropanoyl)piperidin-4-yl)pyrrolidin-3-yloxy)benzamide] | > 30 µM | > 29.8 µM | – | – | – | –
CC(C)C(O)(C(=O)N1CCC(N2CCC3(CC2)CN(c2ccc(C(=O)N(C)C)c(Cl)c2)C3)CC1)C(F)(F)F (centres unmarked) [Compound 1.78, 2-chloro-4-(7-(1-(2-hydroxy-3-methyl-2-(trifluoromethyl)butanoyl)piperidin-4-yl)-2,7-diazaspiro[3.5]nonan-2-yl)-N,N-dimethylbenzamide] | > 30 µM | > 30 µM | – | – | – | –
CN(C)C(=O)c1ccc(N2CCC(N3CC4(CCN(C(=O)[C@](O)(c5ccccc5)C(F)(F)F)CC4)C3)CC2)cc1Cl [Compound 1.79, 2-chloro-N,N-dimethyl-4-(4-(7-((R)-3,3,3-trifluoro-2-hydroxy-2-phenylpropanoyl)-2,7-diazaspiro[3.5]nonan-2-yl)piperidin-1-yl)benzamide] | 26.6 µM | 4.3 µM | – | – | – | –
O=C(NCC(F)F)c1ccc(NC2CN(C3CCN(C(=O)C(O)(c4cccc(Cl)c4)C(F)(F)F)CC3)C2)cc1Cl (centres unmarked) [Compound 1.130, 2-chloro-4-((1-(1-(2-(3-chlorophenyl)-3,3,3-trifluoro-2-hydroxypropanoyl)piperidin-4-yl)azetidin-3-yl)amino)-N-(2,2-difluoroethyl)benzamide] | – | 1.57 µM | – | – | – | –
O=C(c1ccc(NC2CN(C3CCN(C(=O)C(O)(c4cccc(Cl)c4)C(F)(F)F)CC3)C2)cc1Cl)N1CC(F)(F)C1 (centres unmarked) [Compound 1.131, 1-(4-(3-((3-chloro-4-(3,3-difluoroazetidine-1-carbonyl)phenyl)amino)azetidin-1-yl)piperidin-1-yl)-2-(3-chlorophenyl)-3,3,3-trifluoro-2-hydroxypropan-1-one] | – | 1.79 µM | – | – | – | –
O=C(c1ccc(NC2CN(C3CCN(C(=O)C(O)(c4cccc(Cl)c4)C(F)(F)F)CC3)C2)cc1Cl)N1CCC(F)(F)C1 (centres unmarked) [Compound 1.132, 1-(4-(3-((3-chloro-4-(3,3-difluoropyrrolidine-1-carbonyl)phenyl)amino)azetidin-1-yl)piperidin-1-yl)-2-(3-chlorophenyl)-3,3,3-trifluoro-2-hydroxypropan-1-one] | – | 0.61 µM | – | – | – | –
O=C(c1ccc(NC2CN(C3CCN(C(=O)C(O)(c4cccc(Cl)c4)C(F)(F)F)CC3)C2)cc1Cl)N1CCC(F)(F)CC1 (centres unmarked) [Compound 1.133, 1-(4-(3-((3-chloro-4-(4,4-difluoropiperidine-1-carbonyl)phenyl)amino)azetidin-1-yl)piperidin-1-yl)-2-(3-chlorophenyl)-3,3,3-trifluoro-2-hydroxypropan-1-one] | – | 0.995 µM | – | – | – | –
CC(=O)N1CCN(C(=O)c2ccc(NC3CN(C4CCN(C(=O)C(O)(c5cccc(Cl)c5)C(F)(F)F)CC4)C3)cc2Cl)CC1 (centres unmarked) [Compound 1.134, 1-(4-(3-((4-(4-acetylpiperazine-1-carbonyl)-3-chlorophenyl)amino)azetidin-1-yl)piperidin-1-yl)-2-(3-chlorophenyl)-3,3,3-trifluoro-2-hydroxypropan-1-one] | – | 0.86 µM | – | – | – | –
